Five molecules from patent US4640930A, “Naphtho(1,8-bc)-1,5-thiazocinones” (Hoffmann-La Roche Inc., priority 1986, dated 1987) can be followed below.

Structures can show the parent of a compound that is named as a salt.

One assay has as its system Guinea Pig Ileum. The experiment in a line: Guinea pig ileum assay: inhibition of tonic contraction (K+ challenge) of longitudinal muscle, calcium channel blocking. It counts as cell-based. Conditions: Cavia porcellus; concentration inhibiting tonic contraction of muscle by 50%; 80 mM K+ challenge, 37° C., compound 2 minutes prior. As to the method:
GUINEA PIG ILEUM ASSAY Male guinea-pigs weighing from 300-400 grams were stunned and bled. The abdomen was opened and 10-15 cm of terminal ileum was carefully removed and cleaned and placed in Tyrode's Solution of the following composition: NaCl (8 g/l), KCl (0.2 g/l), MgCl2 (0.1 g/l.), CaCl2 (0.2 g/l). NaH2 PO4 (0.05 g/l), NaHCO3 (1.0 g/l) and Glucose (1 g/l). The solution was maintained at 37° C. and gassed with 95%O2 and 5%CO2. Portions of the ileum were placed over a glass rod, a shallow incision was made the length of the mesenteric attachment just severing the outer-longitudinal muscle layer. The longitudinal muscle was separated from the underlying circular muscle by gentle dissection (Rang, H. P. Annals of New York Academy of Science, vol. 144, page 756, 1964). The tissue was fixed at one end to a tissue holder, the other end was connected by a thread to a force transducer and suspended in a muscle bath containing Tyrode's Solution maintained at 37° C. and gassed with 95%O2 and 5%CO2. An initial tension of 500 mg was applied and the tissue allowed to equilibrate for 60 minutes prior to the start of the study. During this period the tissue was washed every 16 minutes. Each preparation, at 16 minute intervals, was challenged with KCl sufficient to yield a bath K^+ concentration of 80 mMK for 2 minutes, then washed with fresh solution. The 16 minute interval between K^+ challenges was maintained throughout the study. Upon stabilization of the responses to the K^+ challenge the test compound (potential calcium entry antagonist) was introduced into the bath 2 minutes prior to and during the 2 minute exposure to K^+ after which the bath was cleared and washed with fresh solution. Logarithmically increasing doses (up to 10^-4 M) of the potential antagonist were administered as the study progressed. The measure of a compound's ability to inhibit the tonic contraction of muscle is a measure of its activity as a calcium channel blocking agent.

Assay [1] has as its system Spontaneously Hypertensive (SH) Rat. The experiment in a line: Blood pressure lowering in the spontaneously hypertensive (SH) rat. The format is in vivo. Conditions: oral, male SH rats. As to the method: BLOOD PRESSURE LOWERING IN THE SPONTANEOUSLY HYPERTENSIVE (SH) RAT
Six male SH rats were used for each test. Body weights were recorded. Six pre-drug control recordings of the systolic blood pressure (mmHg) were measured from the tails of the rats which were unanesthetized and restrained in holders. The rats were previously heated for 5-10 minutes at 32°-34° C. The systolic blood pressure was measured by an occlusion cuff.
The compounds were administered orally to the rats in a composition that included 5% compound and the remainder gum acacia. The blood pressure of the rats was measured over a period of hours following oral administration.
The measure of a compound's ability to decrease blood pressure, is a measure of its activity as an anti-hypertensive agent.

For `COc1ccc([C@@H]2Sc3cccc4cccc(c34)N(CCN(C)C)C(=O)[C@@H]2OC(C)=O)cc1.O=C(O)/C=C/C(=O)O` [OCOCH3 fumarate (+)-cis, (+)-cis-3-(acetyloxy)-2,3-dihydro-5-[2-(dimethylamino)ethyl]-2-(4-methoxyphenyl)naphtho[1,8-bc]-1,5-thiazocin-4(5H)-one (E)-2-butenedioate], the IC50 (commonly the concentration that gives 50% inhibition) with Guinea Pig Ileum is 0.25 µM. Also, in assay [1] (unanesthetized, occlusion cuff on tail, peak decrease), the “Systolic Blood Pressure in SH Rat Peak Decrease (Δ mm Hg)” value was -66 ± 12 mm Hg. The “Duration of Effect on blood pressure” value in assay [1] (footnote a) is 1 to 6 h. On to `COc1ccc([C@@H]2Sc3cccc4cccc(c34)N(CCN(C)C)C(=O)[C@@H]2O)cc1` (racemic) [OH HCl (±)-cis, (±)-cis-2,3-dihydro-5-[2-(dimethylamino)ethyl]-3-hydroxy-2-(4-methoxyphenyl)naphtho[1,8-bc]-1,5-thiazocin-4(5H)-one hydrochloride], for which, in the assay on Guinea Pig Ileum, the IC50 came out at 4.2 µM. As for `COc1ccc([C@@H]2Sc3cccc4cccc(c34)N(CCN(C)C)C(=O)[C@@H]2O)cc1` [OH HCl (+)-cis, (+)-cis-2,3-dihydro-5-[2-(dimethylamino)ethyl]-3-hydroxy-2-(4-methoxyphenyl)naphtho[1,8-bc]-1,5-thiazocin-4(5H)-one hydrochloride], in the assay with Guinea Pig Ileum, the IC50 was 3.1 µM. On the same count and under the same terms, under `COc1ccc([C@@H]2Sc3cccc4cccc(c34)N(CCN(C)C)C(=O)[C@@H]2OC(C)=O)cc1` (relative stereo) [OCOCH3 HCl (±)-cis, (±)-cis-3-(acetyloxy)-2,3-dihydro-5-[2-dimethylamino)ethyl]-2-(4-methoxyphenyl)naphtho[1,8-bc]-1,5-thiazocin-4(5H)-one hydrochloride] stands 3.9 µM. Turning to `COc1ccc([C@@H]2Sc3cccc4cccc(c34)N(CCN(C)C)C(=O)[C@H]2OC(C)=O)cc1` (racemic) [OCOCH3 HCl (±)-trans, (±)-trans-3-(acetyloxy)-2,3-dihydro-5-[2-(dimethylamino)ethyl]-2-(4-methoxy-phenyl)-naphtho[1,8-bc]-1,5-thiazocin4(5H)-one hydrochloride], the IC50 with Guinea Pig Ileum is 3 µM.
